Assay results as given in paper PMC11500415, “Chemical inhibition of stomatal differentiation by perturbation of the master-regulatory bHLH heterodimer via an ACT-Like domain” (Nature Communications, 2024).
Like-named read-outs stand apart in the source and are kept apart here.

Legend:
[1] = target: T1, MUTE_ACTL (Arabidopsis thaliana, UniProt Q9M8K6); assay: ITC direct binding; set-up: species or system A. thaliana; conditions: ITC (Supplementary Fig. 8, Supplementary Table 2)
T1 construct: MUTE-ACTL (114-202); made in house; host or cells: E. coli BL21
T1 sequence (Q9M8K6 114-202): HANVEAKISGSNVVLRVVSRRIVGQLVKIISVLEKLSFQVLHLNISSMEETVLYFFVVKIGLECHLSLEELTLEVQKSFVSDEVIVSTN
Excerpt: (§1) A. thaliana SCRM (1-494), ΔNSPCH (98-364), MUTE (1-202), ΔNFAMA (190-414), MUTEΔC (1-114), MUTER133A_R134A, MUTEE162A_E163A, MUTER133A_R134A_E162A_E163A, SCRM-ACTL (405-494), MUTE-ACTL (114-202), SPCH-ACTL (285-364), FAMA-ACTL (306-414), MUTE_ACTLR133A_R134A, MUTE_ACTLE162A_E163A, MUTE_ACTLR133A_R134A_E162A_E163A were cloned into pGEX-4T-1 vector with an N-terminal GST tag and a thrombin cleavage sequence. For protein expression, the constructs were transformed into E. coli strain BL21. For each transformant, a single colony was selected and incubated in 10 ml LB liquid media. The overnight-incubated E. coli suspensions were transferred to 1 L LB medium and incubated at 37 °C for around 2 h until the OD600 reached 0.4–0.6. The isopropyl β-D-1-thiogalactopyranoside ([…] of final concentration) was added to the cultures and the strains were incubated at 22 °C for a further 18 h. GST-fused proteins were purified using glutathione agarose resin. The soluble portion of the cell lysate was loaded onto a GST-Sepharose column. Nonspecifically bound proteins were removed by washing the column with 20 mM Tris pH 8.0, 200 mM NaCl. The bound GST-fused protein was eluted with 10 mm glutathione and 20 mM Tris pH 8.0, 200 mM NaCl. The GST-fused proteins were exchanged with phosphate-buffered saline buffer, and then the solution was treated with 50 μg of thrombin for 10–12 h at 16 ^οC. The GST portion of the protein was cleaved during thrombin digestion, and then the whole solution was reloaded onto the glutathione S-transferase column to obtain pure protein. The purified proteins were further purified by gel filtration on a Superdex-200 (GE) column using fast protein liquid chromatography and phosphate buffer (pH 7.2) as the eluent. The purity of the protein was checked by SDS-PAGE. For detailed lists of oligo DNA and plasmid information, see Supplementary Tables 5, 6, respectively.
Binding of the small molecule Stomidazolone (3) to SCRM, MUTE, SPCH, FAMA, MUTEΔC, MUTE_ACTL, SCRM_ACTL, SPCH_ACTL and FAMA_ACTL, MUTER133A_R134A, MUTEE162A_E163A, MUTER133A_R134A_E162A_E163A, as well as SCRM binding to MUTE in the presence and absence of Stomidazolone (3) / AYSJ1059 (5) /AYSJ1061 (6) was characterized at 30 °C using a Malvern PEAQ-ITC microcalorimeter. All the protein samples were dialyzed overnight using PBS buffer containing 2% DMSO and 1 mM DTT. Stomidazolone was dissolved in PBS buffer containing 2% DMSO and 1 mM DTT. Titrations were performed by injecting 1 × 0.5-μL and 12 × 3-μL or 1 × 0.75-μL and 18 × 2-μL or 1 × 0.2-μL and 25 × 1.3-μL aliquots of 1 mM Stomidazolone / AYSJ1059 / AYSJ1061 to 5-30 μM of protein in PBS buffer pH 7.4, containing 2% DMSO and 1 mM DTT. All titrations were carried out at least twice. The raw data were corrected using buffer and protein controls and analyzed using the software supplied by the manufacturer. See Supplementary Table 3 for details.

[2] = target: T1, MUTE_ACTL; assay: BLI direct binding; set-up: species or system A. thaliana; conditions: for binding to MUTE by BLI (in words): BLI (Supplementary Table 3); for Kd: MUTE_ACTL
Excerpt: as §1
The binding affinities of SCRM to MUTE / MUTER133A_R134A / MUTEE162A_E163A / MUTER133A_R134A_E162A_E163A in presence and absence of Stomidazolone (3) and its analogues (AYSJ1059 (5) and AYSJ1061 (6)), and Stomidazolone / AYSJ1059 / AYSJ1061 interactions with GST-tagged SCRM, MUTE, SPCH, FAMA, MUTE ΔACTL, MUTE_ACTL, SCRM_ACTL, SPCH_ACTL and FAMA_ACTL, MUTER133A_134A, MUTEE162A_E163A, MUTER133A_R134A_E162A_E163A were measured using the Octet Red96 system (ForteBio, Pall Life Sciences) following the manufacturer’s protocols. The optical probes coated with anti-GST were first loaded with 500 nM GST tagged proteins before kinetic binding analyses. The experiment was performed in 96-well plates maintained at 30 °C. Each well was loaded with 200 μL reaction volume for the experiment. The binding buffer used in these experiments contained 1× PBS supplemented with 2% DMSO, 0.02% Tween20. […] There was no binding of the analytes to the unloaded probes as shown by the control wells. Binding kinetics to all seven concentrations of the analytes were measured simultaneously using default parameters on the instrument. The data were analyzed using the Octet data analysis software. The association and dissociation curves were fit with the 1:1 homogeneous ligand model. The kobs (observed rate constant) values were used to calculate Kd, with steady-state analysis of the direct binding. See Supplementary Table 3 for details.

[3] = BLI steady state, read-out: KD (SS)

Structure (SMILES) | binding to MUTE analyzed by ITC (in words) [1] | binding to MUTE by BLI (in words) [2] | Kd [2, 3] [µM] | Kd ([2]; BLI, read-out: KD) [µM]
O=C1C(c2ccccc2)=NC(NS(=O)(=O)c2ccccc2)(c2ccc(Br)cc2)N1S(=O)(=O)c1ccccc1 (centres unmarked) [AYSJ1061] | no binding | substantially weak binding | 139 ± 9.5 | 135 ± 5.5
Cc1ccc(C2(NS(=O)(=O)c3ccccc3)N=C(c3ccccc3)C(=O)N2S(=O)(=O)c2ccccc2)cc1 (centres unmarked) [AYSJ1059] | no binding | substantially weak binding | 126 ± 13.5 | 123 ± 6.5
